Measured values: patent US20210002723A1, “METHODS FOR ASSESSING RESPONSIVENESS TO ASTHMA TREATMENT BASED ON VNN-1 EXPRESSION AND PROMOTER METHYLATION” (Children's Hospital Medical Center, priority 2014, published 2021)

Key:
[1] = system: WT mice; experiment: Experimental asthma model (repeated HDM exposure), response to dexamethasone in wild-type mice; format: in vivo, mouse (BALB/c); settings: dexamethasone 3 mg/kg i.p. last 5 days, mean ± SEM vs HDM-treated group
Protocol: (§1) The VNN1^−/− mice used in this study were described in Pitari et al., FEBS letters 2000; 483:149-54. Age- and sex-matched wild-type BALB/c mice were purchased from Harlan Laboratories (Indianapolis, Ind.). All mice were housed in a specific pathogen-free environment following routine practice.
(§2) Mice were exposed to intranasal doses of HDM (20 ug in 50 ul saline) or saline (0.9% NaCl, 50 ul; control group) 3 times a week for 3 weeks as previously described 18. Mice were treated with intra-peritoneal dexamethasone (3 mg/kg in dimethyl sulfoxide, (DMSO)) or DMSO (100 ul) for the last 5 days of the 3 week model. Airway hyperresponsiveness (AHR) was assessed 24 hours after the last HDM challenge using a flexiVent system (SCIREQ, Montreal, QC, Canada) as previously described. See, e.g., Brandt et al., J Allergy Clin Immunol., 2013; 132:1194-204 e2. Bronchoalveolar lavage fluid (BALF) was collected, processed, and inflammatory cells were quantified analyzed as previously described. See Brandt et al., 2013.
(§3) For the experimental asthma model results, individual AHR, total BALF cell counts and eosinophil percentage in mice treated with HDM plus dexamethasone were compared to and normalized by the corresponding mean value in the HDM-treated group. The data are presented as means±SEM. Difference between the WT and VNN1^−/− group was tested by non-parametric Mann Whitney test. A p-value<0.05 was considered significant. Percentage reduction was used to present the steroid response results.

[2] = system: VNN1−/− mice; experiment: Experimental asthma model (repeated HDM exposure), response to dexamethasone in VNN1−/− mice; format: in vivo, mouse; settings: dexamethasone 3 mg/kg i.p. last 5 days, mean ± SEM vs HDM-treated group
Protocol: as §1, §2, §3

Compound: C[C@@H]1C[C@H]2[C@@H]3CCC4=CC(=O)C=C[C@]4(C)[C@@]3(F)[C@@H](O)C[C@]2(C)[C@@]1(O)C(=O)CO [Dexamethasone, dexamethasone]
- average percentage reduction of AHR ([1]; 50 mg/ml methacholine challenge): 78.1%
- average percentage reduction of AHR ([1]; 100 mg/ml methacholine challenge): 80.2%
- reduction in eosinophils (BALF) [1]: 83.6±3.7%
- reduction in total BALF cells [1]: 70.0±4.3%
- average percentage reduction of AHR ([2]; 50 mg/ml methacholine): 55.2±4.9%
- average percentage reduction of AHR ([2]; 100 mg/ml methacholine): 53.3%
- reduction in eosinophils (BALF) [2]: 36.1%
- reduction in total BALF cells [2]: 40.9%
